From paper PMC5533769, “A cell-based high-throughput screening assay system for inhibitor compounds of antigen presentation by HLA class II molecule” (Scientific Reports, 2017)

How the values were obtained:
DR15 (DRB1*15:01) = target: T1, DR15 (DRB1*15:01) (Homo sapiens, UniProt P01903+P01911, OTHER:DRA*01:01ANDEACHDRB1VECTORSWEREINTRODUCEDINTOTHECELLSAT1:1RATIO/OTHER:MBP83-99TODR15(DRB1*15:01)); assay: 96-well competition assay: inhibition of MBP83-99 loading to DR15-expressing 3T3 cells; format: binding
T1 construct: The open reading frame for DRA or DRB1 were flanked with Xho 1 and EcoR1 sites; expressed in transfected cells

DR1 (DRB1*01:01) = target: T2, DR1 (DRB1*01:01) (Homo sapiens, UniProt P01903+P01911, A100R/D57E/F55L/F60I/F76Y/I96L/L162R/M171V/P40L/Q125E/R42F/V115G/Y59C); assay: 96-well competition assay: inhibition of MBP83-99 loading to DR1-expressing 3T3 cells; format: binding
T2 construct: The open reading frame for DRA or DRB1 were flanked with Xho 1 and EcoR1 sites; expressed in transfected cells

[1] = system: DR15-expressing 3T3 cells; details: crystal violet (A550); 1 h with CLIP, then MBP83-99 6 h
[2] = target: HLA-DR15 (DRA*01:01/DRB1*15:01) (Homo sapiens, UniProt P01903+P01911); assay: FACS binding of biotinylated peptide to HLA-DR15 on HEK293T cells; details: SA-PE, HEK293T transiently expressing DRA*01:01 + DRB1*15:01, biotinylated peptide 30 µM, 5 h (>5 h), 3 to 6 independent experiments
[3] = target: T3, HLA-DR1 (DRA*01:01/DRB1*01:01) (Homo sapiens, UniProt P01903+P01911, A100R/D57E/F55L/F60I/F76Y/I96L/L162R/M171V/P40L/Q125E/R42F/V115G/Y59C); assay: FACS binding of biotinylated peptide to HLA-DR1 on HEK293T cells; details: SA-PE, biotinylated peptide 30 µM, >5 h, 3 to 6 independent experiments
[4] = system: HLA-DR (DRB1*01:01, DRB1*04:05, DRB1*09:01, DRB1*15:01); assay: FACS binding of biotinylated peptide to panel of HLA-DR on HEK293T cells; design: species or system human
[5] = target: T3, HLA-DR1 (DRA*01:01/DRB1*01:01); assay: FACS binding of biotinylated peptide to HLA-DR1 on stable 3T3 cells; details: SA-PE, stable 3T3, DRA*01:01 + DRB1*01:01, biotinylated peptide 30 µM overnight
[6] = system: HLA-DR (DRB1*01:01, DRB1*04:05, DRB1*09:01, DRB1*15:01); assay: FACS binding of biotinylated peptide to panel of HLA-DR on stable 3T3 cells; design: species or system human; details: SA-PE, […], biotinylated peptide 30 µM overnight
[7] = system: DR1 (DRB1*01:01) and DR4 (DRB1*04:01); details: HLA-DRB1*01:01 and DRB1*04:01; ref [4], [5]; cited from earlier work
Description: An array of autoimmune diseases, including rheumatoid arthritis (RA) and multiple sclerosis (MS), are associated with particular alleles of HLA-DRB1[1], [3]. […] On ...

Compound: CSCC[C@H](NC(=O)[C@H](CCCNC(=N)N)NC(=O)[C@H](CCSC)NC(=O)[C@H](CCCCN)NC(=O)[C@H](CO)NC(=O)[C@@H](NC(=O)[C@@H]1CCCN1C(=O)[C@@H](N)CCCCN)C(C)C)C(=O)N[C@@H](C)C(=O)N[C@H](C(=O)N1CCC[C@H]1C(=O)N[C@@H](CC(C)C)C(=O)N[C@@H](CC(C)C)C(=O)N[C@@H](CCSC)C(=O)N[C@@H](CCC(N)=O)C(=O)N[C@@H](C)C(=O)N[C@@H](CC(C)C)C(=O)O)[C@@H](C)O [CLIP102-118, Class II-associated invariant chain peptide (CLIP) 102–118]
- IC50 (DR15 (DRB1*15:01)): 9 µM
- Kd (DR15 (DRB1*15:01)): 3 µM
- IC50 (DR1 (DRB1*01:01)): 8 µM
- Kd (DR1 (DRB1*01:01)): 5 µM
- Cell number after binding assay (cytotoxicity), DR15 cells [1]: no difference in the cell number
- Cell number after binding assay (cytotoxicity), DR1 cells (DR1-expressing 3T3 cells): no difference in the cell number

Compound: GIAGFKGEQGPKGEP [CII263-272, type II collagen (CII) 263–272, biotinylated type II collagen peptide]
- Peptide binding (MFI), HLA-DR15 [2]: Significant binding
- Peptide binding (MFI), HLA-DR1 [3]: Significant binding
- Binding MFI compared with MBP83-99 [4]: far less than that for MBP83-99 binding
- Peptide binding, DR1 on 3T3 [5]: very weakly
- Peptide binding across HLA-DR genotypes on 3T3 [6]: not at all to other DR-expressing cells
- Presentation by DR1 and DR4 [7]: present peptide from type II collagen
